Usually IC50 stands for the point on the concentration scale where inhibition reaches its midpoint.

The source of these data is patent US10875875B2, “Propionic acid derivatives and methods of use thereof” (Aviara Pharmaceuticals, Inc., priority 2017, dated 2020).

Structures are written as SMILES.

The assay has as its target α4β1 (Homo sapiens, UniProt P05556+P13612). The assay can be described thus: α4β1 integrin inhibition, IC50. Type of assay: binding. The following applies: read-out: α4β1 IC50.

Sequence of α4β1 (P13612 34-1032): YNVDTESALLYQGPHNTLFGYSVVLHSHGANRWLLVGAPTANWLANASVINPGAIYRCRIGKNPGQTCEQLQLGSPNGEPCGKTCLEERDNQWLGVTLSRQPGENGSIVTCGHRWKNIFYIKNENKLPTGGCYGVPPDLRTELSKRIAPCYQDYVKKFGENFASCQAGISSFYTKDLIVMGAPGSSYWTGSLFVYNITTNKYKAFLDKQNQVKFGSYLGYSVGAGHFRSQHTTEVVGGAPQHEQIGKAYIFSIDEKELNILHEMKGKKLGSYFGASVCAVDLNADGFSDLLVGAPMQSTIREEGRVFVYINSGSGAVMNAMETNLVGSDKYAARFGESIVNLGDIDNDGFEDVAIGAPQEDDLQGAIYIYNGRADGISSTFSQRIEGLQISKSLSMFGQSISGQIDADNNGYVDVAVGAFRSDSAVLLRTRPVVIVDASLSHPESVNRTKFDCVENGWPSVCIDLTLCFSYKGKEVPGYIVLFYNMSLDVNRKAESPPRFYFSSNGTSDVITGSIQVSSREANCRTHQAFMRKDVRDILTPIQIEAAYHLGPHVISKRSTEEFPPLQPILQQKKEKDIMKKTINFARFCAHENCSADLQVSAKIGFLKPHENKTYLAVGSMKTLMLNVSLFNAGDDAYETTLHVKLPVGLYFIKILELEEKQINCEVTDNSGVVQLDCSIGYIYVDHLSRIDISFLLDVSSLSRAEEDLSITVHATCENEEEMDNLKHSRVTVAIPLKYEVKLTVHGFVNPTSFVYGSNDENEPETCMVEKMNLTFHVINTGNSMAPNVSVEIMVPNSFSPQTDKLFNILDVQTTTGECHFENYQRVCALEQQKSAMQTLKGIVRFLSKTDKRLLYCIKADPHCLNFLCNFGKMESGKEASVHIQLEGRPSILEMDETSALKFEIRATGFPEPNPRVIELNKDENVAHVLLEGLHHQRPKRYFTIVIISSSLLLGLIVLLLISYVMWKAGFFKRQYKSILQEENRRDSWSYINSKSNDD
Sequence of α4β1 (P05556 21-798): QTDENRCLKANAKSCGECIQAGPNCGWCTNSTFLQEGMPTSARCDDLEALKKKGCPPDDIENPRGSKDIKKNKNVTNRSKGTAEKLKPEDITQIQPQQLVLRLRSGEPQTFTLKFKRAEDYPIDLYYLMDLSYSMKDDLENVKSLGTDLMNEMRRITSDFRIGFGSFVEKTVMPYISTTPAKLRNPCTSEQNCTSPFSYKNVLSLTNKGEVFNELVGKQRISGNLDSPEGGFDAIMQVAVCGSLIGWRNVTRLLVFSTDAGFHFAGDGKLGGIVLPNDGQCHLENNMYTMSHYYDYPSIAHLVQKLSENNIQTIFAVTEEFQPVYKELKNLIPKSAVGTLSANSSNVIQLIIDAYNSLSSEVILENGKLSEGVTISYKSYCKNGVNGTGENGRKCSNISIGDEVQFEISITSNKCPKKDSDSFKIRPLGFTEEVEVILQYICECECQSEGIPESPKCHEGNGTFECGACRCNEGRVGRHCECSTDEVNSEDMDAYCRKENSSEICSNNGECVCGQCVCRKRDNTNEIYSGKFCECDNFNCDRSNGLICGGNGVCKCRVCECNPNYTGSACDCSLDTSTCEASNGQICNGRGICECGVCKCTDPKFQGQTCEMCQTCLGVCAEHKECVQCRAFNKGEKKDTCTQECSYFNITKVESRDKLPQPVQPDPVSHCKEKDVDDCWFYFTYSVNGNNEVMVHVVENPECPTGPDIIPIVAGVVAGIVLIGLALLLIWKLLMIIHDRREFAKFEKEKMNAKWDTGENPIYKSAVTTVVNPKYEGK

For `Cn1ccc(O)c(NC(=O)N[C@@H](CC(=O)O)c2cc(-c3ccccc3)cc(C(F)(F)F)c2)c1=O` [1-618, sodium (S)-3-(3-(1-methyl-4-oxido-2-oxo-1,2-dihydropyridin-3-yl)ureido)-3-(5-(trifluoromethyl)biphenyl-3-yl)propanoate], the IC50 is more than 0.2 µM.

Take `Cn1ccc(O)c(NC(=O)N[C@@H](CC(=O)O)c2ccc(-c3cccc(Cl)c3)s2)c1=O` [1-619, sodium (S)-3-(5-(3-chlorophenyl)thiophen-2-yl)-3-(3-(1-methyl-4-oxido-2-oxo-1,2-dihydropyridin-3-yl)ureido)propanoate]: the IC50 is less than 0.2 µM.

`Cn1ccc(O)c(NC(=O)N[C@@H](CC(=O)O)c2ccc(-c3cccc(F)c3)s2)c1=O` [1-620, sodium (S)-3-(5-(3-fluorophenyl)thiophen-2-yl)-3-(3-(1-methyl-4-oxido-2-oxo-1,2-dihydropyridin-3-yl)ureido)propanoate]: the IC50 was less than 0.2 µM.

Consider `Cn1ccc(O)c(NC(=O)N[C@@H](CC(=O)O)c2ccc(-c3ccc(F)cc3F)cc2)c1=O` [1-621, sodium (S)-3-(2′,4′-difluorobiphenyl-4-yl)-3-(3-(1-methyl-4-oxido-2-oxo-1,2-dihydropyridin-3-yl)ureido)propanoate], for which the IC50 was less than 0.02 µM.

`Cc1cc(O)c(NC(=O)N[C@@H](CC(=O)O)c2ccc(-c3ccc(F)cc3F)cc2)c(=O)n1C` [1-622, sodium (S)-3-(2′,4′-difluorobiphenyl-4-yl)-3-(3-(1,6-dimethyl-4-oxido-2-oxo-1,2-dihydropyridin-3-yl)ureido)propanoate]: the IC50 was less than 0.02 µM.

In the case of `Cc1cn(C)c(=O)c(NC(=O)N[C@@H](CC(=O)O)c2ccc(-c3ccc(F)cc3F)cc2)c1O` [1-623, sodium (S)-3-(2′,4′-difluorobiphenyl-4-yl)-3-(3-(1,5-dimethyl-4-oxido-2-oxo-1,2-di hydropyridin-3-yl)ureido)propanoate], the IC50 was less than 0.02 µM.

With `Cc1ccccc1-c1cc([C@H](CC(=O)O)NC(=O)Nc2c(O)ccn(C)c2=O)ccc1OC(F)(F)F` [1-624, sodium (S)-3-(3-(1-methyl-4-oxido-2-oxo-1,2-dihydropyridin-3-yl)ureido)-3-(2′-methyl-6-(trifluoromethoxy)biphenyl-3-yl)propanoate], the IC50 was less than 0.02 µM.

On to `Cn1ccc(O)c(NC(=O)N[C@@H](CC(=O)O)c2ccc(OC(F)(F)F)c(-c3ccccc3)c2)c1=O` [1-625, sodium (S)-3-(3-(1-methyl-4-oxido-2-oxo-1,2-dihydropyridin-3-yl)ureido)-3-(6-(trifluoromethoxy)biphenyl-3-yl)propanoate], for which the IC50 is less than 0.2 µM.

As for `CC(=O)c1cccc(-c2cccc(C(CC(=O)O)NC(=O)Nc3c(O)c(C)cn(C)c3=O)c2)c1` (centres unmarked) [1-626, sodium 3-(3′-acetylbiphenyl-3-yl)-3-(3-(1,5-dimethyl-4-oxido-2-oxo-1,2-dihydropyridin-3-yl)ureido)propanoate], the IC50 was less than 0.02 µM.

For `Cc1cn(C)c(=O)c(NC(=O)N[C@@H](CC(=O)O)c2ccc(-c3ccccc3)s2)c1O` [1-628, sodium (S)-3-(3-(1,5-dimethyl-4-oxido-2-oxo-1,2-dihydropyridin-3-yl)ureido)-3-(5-phenylthiophen-2-yl)propanoate], the IC50 was less than 0.2 µM.

Turning to `Cn1ccc(O)c(NC(=O)N[C@@H](CC(=O)O)c2cccc(-c3nccs3)c2)c1=O` [1-630, sodium (S)-3-(3-(1-methyl-4-oxido-2-oxo-1,2-dihydropyridin-3-yl)ureido)-3-(3-(thiazol-2-yl)phenyl)propanoate], the IC50 is less than 0.02 µM.

With `Cc1cc(-c2cccc(OC(F)(F)F)c2)cc([C@H](CC(=O)O)NC(=O)Nc2c(O)cc(C)n(C)c2=O)c1` [1-631, sodium (S)-3-(3-(1,6-dimethyl-4-oxido-2-oxo-1,2-dihydropyridin-3-yl)ureido)-3-(5-methyl-3′-(trifluoromethoxy)biphenyl-3-yl)propanoate], the IC50 was less than 0.02 µM.

Consider `Cc1cc(O)c(NC(=O)N[C@@H](CC(=O)O)c2cc(F)cc(-c3ccc(F)cc3F)c2)c(=O)n1C` [1-632, sodium (S)-3-(3-(1,6-dimethyl-4-oxido-2-oxo-1,2-dihydropyridin-3-yl)ureido)-3-(2′,4′,5-trifluorobiphenyl-3-yl)propanoate], for which the IC50 is less than 0.02 µM.

Take `Cn1ccc(O)c(NC(=O)N[C@@H](CC(=O)O)c2cc(F)cc(-c3ccc(F)cc3F)c2)c1=O` [1-633, sodium (S)-3-(3-(1-methyl-4-oxido-2-oxo-1,2-dihydropyridin-3-yl)ureido)-3-(2′,4′,5-trifluorobiphenyl-3-yl)propanoate]: the IC50 was less than 0.02 µM.

For `COc1cccc(-c2cc([C@H](CC(=O)O)NC(=O)Nc3c(O)ccn(C)c3=O)ccc2OC(F)(F)F)c1` [1-634, sodium (S)-3-(3′-methoxy-6-(trifluoromethoxy)biphenyl-3-yl)-3-(3-(1-methyl-4-oxido-2-oxo-1,2-dihydropyridin-3-yl)ureido)propanoate], the IC50 was less than 0.02 µM.

For `COc1cccc(-c2cc([C@H](CC(=O)O)NC(=O)Nc3c(O)cc(C)n(C)c3=O)ccc2OC(F)(F)F)c1` [1-635, sodium (S)-3-(3-(1,6-dimethyl-4-oxido-2-oxo-1,2-dihydropyridin-3-yl)ureido)-3-(3′-methoxy-6-(trifluoromethoxy)biphenyl-3-yl)propanoate], the IC50 is less than 0.02 µM.

On to `Cc1cccc(C)c1-c1ccc([C@H](CC(=O)O)NC(=O)Nc2c(O)ccn(C)c2=O)cc1` [1-636, sodium (S)-3-(2′,6′-dimethylbiphenyl-4-yl)-3-(3-(1-methyl-4-oxido-2-oxo-1,2-dihydropyridin-3-yl)ureido)propanoate], for which the IC50 was less than 0.2 µM.

For the molecule `Cc1ccccc1-c1ccc([C@H](CC(=O)O)NC(=O)Nc2c(O)cc(C)n(C)c2=O)cc1` [1-637, sodium (S)-3-(3-(1,6-dimethyl-4-oxido-2-oxo-1,2-dihydropyridin-3-yl)ureido)-3-(2′-methylbiphenyl-4-yl)propanoate], the IC50 was less than 0.02 µM.

As for `Cc1cccc(C)c1-c1ccc([C@H](CC(=O)O)NC(=O)Nc2c(O)cc(C)n(C)c2=O)cc1` [1-638, sodium (S)-3-(3-(1,6-dimethyl-4-oxido-2-oxo-1,2-dihydropyridin-3-yl)ureido)-3-(2′,6′-dimethylbiphenyl-4-yl)propanoate], the IC50 was less than 0.2 µM.

`Cn1ccc(O)c(NC(=O)N[C@@H](CC(=O)O)c2cccc(-c3ccccn3)c2)c1=O` [1-639, sodium (S)-3-(3-(1-methyl-4-oxido-2-oxo-1,2-dihydropyridin-3-yl)ureido)-3-(3-(pyridin-2-yl)phenyl)propanoate]: the IC50 is less than 0.02 µM.

For the molecule `COc1ccc(-c2cccc([C@H](CC(=O)O)NC(=O)Nc3c(O)ccn(C)c3=O)c2)nn1` [1-640, sodium (S)-3-(3-(6-methoxypyridazin-3-yl)phenyl)-3-(3-(1-methyl-4-oxido-2-oxo-1,2-dihydropyridin-3-yl)ureido)propanoate], the IC50 was less than 0.02 µM.

Consider `Cn1ccc(O)c(NC(=O)N[C@@H](CC(=O)O)c2cncc(-c3ccccc3)c2)c1=O` [1-641, sodium (S)-3-(3-(1-methyl-4-oxido-2-oxo-1,2-dihydropyridin-3-yl)ureido)-3-(5-phenylpyridin-3-yl)propanoate], for which the IC50 is less than 0.02 µM.

For the molecule `Cc1cn(C)c(=O)c(NC(=O)N[C@@H](CC(=O)O)c2ccc(-c3ccccc3)cc2)c1O` [1-643, sodium (S)-3-(biphenyl-4-yl)-3-(3-(1,5-dimethyl-4-oxido-2-oxo-1,2-dihydropyridin-3-yl)ureido)propanoate], the IC50 is less than 0.2 µM.

For `COc1ccc(-c2cccc([C@H](CC(=O)O)NC(=O)Nc3c(O)c(C)cn(C)c3=O)c2)cc1` [1-645, sodium (S)-3-(3-(1,5-dimethyl-4-oxido-2-oxo-1,2-dihydropyridin-3-yl)ureido)-3-(4′-methoxybiphenyl-3-yl)propanoate], the IC50 is less than 0.2 µM.

With `Cn1ccc(O)c(NC(=O)N[C@@H](CC(=O)O)c2cccc(-c3cnccn3)c2)c1=O` [15-2, sodium (S)-3-(3-(1-methyl-4-oxido-2-oxo-1,2-dihydropyridin-3-yl)ureido)-3-(3-(pyrazin-2-yl)phenyl)propanoate], the IC50 was less than 0.02 µM.

For the molecule `COc1cccc(-c2cccc([C@H](CC(=O)O)NC(=O)Nc3c(O)ccn(C)c3=O)c2)n1` [sodium (S)-3-(3-(6-methoxypyridin-2-yl)phenyl)-3-(3-(1-methyl-4-oxido-2-oxo-1,2-dihydropyridin-3-yl)ureido)propanoate], the IC50 is less than 0.02 µM.
